A short description of the data set: Solubility (shake-flask, UV detection; organic solvents). In kind it is physicochemical. The protocol: Solubility for 5 was investigated by the shake-flask methodology with UV-spectroscopic sample detection. To produce a saturated solution of 5, approximately 1 mg of solid material was added to 10 mL of an aqueous solution, which was adjusted to pH 2.3 with 0.5 M HCl. The sample was then sonicated in an ultrasonic bath for several hours (at room temperature) before being left to equilibrate for a period of approximately 3 days. The supernatant was then filtered under vacuum through a 0.2 µm PVDF filter plate, and the UV absorption spectrum of the sample was measured (after adjusting the pH of the solution to 11.8 with 0.5 M KOH). Molar absorption coefficients of 5 were obtained at pH 11.8 for 25 µM, 50 µM, and 100 µM solutions of 5, in order to quantify the concentration of the sample in the saturated supernatant. […] However, 5 was less soluble in DMSO (~4.1 mg/mL).

SMILES strings stand for the structures. Read-outs that look alike come from different tables or passages of the source.

With `Cc1cn([C@H]2C[C@H](F)[C@@H](COC(=O)CCCCCCCCCCCN=[N+]=[N-])O2)c(=O)[nH]c1=O` [Compound 5, 3′-fluoro-2′,3′-dideoxy-5′-O-(12-azidododecanoyl)thymidine], the solubility was ~4100 µg/mL (DMSO, organic solvent or mixture, DMSO, read-out: solubility in DMSO); ≤ 0.51 µM (aqueous solution adjusted to pH 2.3, pH 2.3, aqueous buffer, thermodynamic from solid, shake-flask, UV detection, read-out: aqueous solubility (upper limit)); > 30000 µg/mL (ethanol, organic solvent or mixture, ethanol, read-out: solubility in ethanol). For the same compound, the “solubility in water/methanol (60:40)” value (mixture of water/methanol (60:40)) was “completely soluble”.

Values taken from PMC9143043, “Synthesis and Biological Evaluation of 5′-O-Fatty Acyl Ester Derivatives of 3′-Fluoro-2′,3′-dideoxythymidine as Potential Anti-HIV Microbicides” (Molecules, 2022).
